From the supplement of paper PMC10307832

Assays:
Assay in all cases: relative viability (nuclei count vs DMSO), 5 days (fraction); higher = more cells survive
[1] = system: NCI-H1666
Method in brief: (§1)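 Relative viability divides the nuclei count in treated wells by that in vehicle wells. Lung cancer cell lines were seeded in 1536-well plates, dosed by pin tool the next day, and fixed and stained after 5 days in one step with final 0.05% Triton X-100, 1% formaldehyde and 1 ug/ml Hoechst. Dosing was a single drug or a fixed anchor-drug dose plus five library-drug doses (not always all listed) in √10 steps, and values are medians of duplicate plates imaged at 4×.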

[2] = system: SK-LU-1
Method in brief: as §1

[3] = system: NCI-H661
Method in brief: as §1

[4] = system: NCI-H1648
Method in brief: as §1

[5] = system: NCI-H1623
Method in brief: as §1

[6] = system: NCI-H1944
Method in brief: as §1

[7] = system: NCI-H596
Method in brief: as §1

[8] = system: PC-14
Method in brief: as §1

## CCNC(=O)c1noc(-c2cc(C(C)C)c(O)cc2O)c1-c1ccc(CN2CCOCC2)cc1 [Luminespib] + COc1cccc2cc(-c3nc([C@H]4CC[C@H](C(=O)O)CC4)n4ncnc(N)c34)[nH]c12 [OSI-027] (partner 0.5 µM)
[1]; first compound 0.002 µM
  relative viability: 0.841
[1]; first compound 0.006325 µM
  relative viability: 0.801
[1]; first compound 0.02 µM
  relative viability: 0.853
[1]; first compound 0.06325 µM
  relative viability: 0.81
[1]; first compound 0.2 µM
  relative viability: 0.791
[2]; first compound 0.002 µM
  relative viability: 0.356
[2]; first compound 0.006325 µM
  relative viability: 0.201
[2]; first compound 0.02 µM
  relative viability: 0.136
[2]; first compound 0.06325 µM
  relative viability: 0.0733
[2]; first compound 0.2 µM
  relative viability: 0.0594
[3]; first compound 0.002 µM
  relative viability: 0.802
[3]; first compound 0.006325 µM
  relative viability: 0.672
[3]; first compound 0.02 µM
  relative viability: 0.58
[3]; first compound 0.06325 µM
  relative viability: 0.199
[3]; first compound 0.2 µM
  relative viability: 0.226
[4]; first compound 0.006325 µM
  relative viability: 0.283
[4]; first compound 0.02 µM
  relative viability: 0.289
[4]; first compound 0.06325 µM
  relative viability: 0.366
[4]; first compound 0.2 µM
  relative viability: 0.335
[5]; first compound 0.002 µM
  relative viability: 0.449
[5]; first compound 0.006325 µM
  relative viability: 0.439
[5]; first compound 0.02 µM
  relative viability: 0.415
[5]; first compound 0.06325 µM
  relative viability: 0.343
[5]; first compound 0.2 µM
  relative viability: 0.293
[6]; first compound 0.002 µM
  relative viability: 0.422
[6]; first compound 0.006325 µM
  relative viability: 0.359
[6]; first compound 0.02 µM
  relative viability: 0.365
[6]; first compound 0.06325 µM
  relative viability: 0.215
[6]; first compound 0.2 µM
  relative viability: 0.152
[7]; first compound 0.002 µM
  relative viability: 0.797
[7]; first compound 0.006325 µM
  relative viability: 0.788
[7]; first compound 0.02 µM
  relative viability: 0.415
[7]; first compound 0.06325 µM
  relative viability: 0.642
[7]; first compound 0.2 µM
  relative viability: 0.377
[8]; first compound 0.002 µM
  relative viability: 0.918
[8]; first compound 0.006325 µM
  relative viability: 0.598
[8]; first compound 0.02 µM
  relative viability: 0.11
[8]; first compound 0.06325 µM
  relative viability: 0.0462
[8]; first compound 0.2 µM
  relative viability: 0.0587

## CCNC(=O)c1noc(-c2cc(C(C)C)c(O)cc2O)c1-c1ccc(CN2CCOCC2)cc1 [Luminespib] + Cc1cc(Nc2cc(N3CCN(C)CC3)nc(Sc3ccc(NC(=O)C4CC4)cc3)n2)n[nH]1 [Tozasertib] (partner 0.1 µM)
[1]; first compound 0.002 µM
  relative viability: 0.64
[1]; first compound 0.006325 µM
  relative viability: 0.583
[1]; first compound 0.02 µM
  relative viability: 0.601
[1]; first compound 0.06325 µM
  relative viability: 0.732
[1]; first compound 0.2 µM
  relative viability: 0.538
[2]; first compound 0.002 µM
  relative viability: 0.373
[2]; first compound 0.006325 µM
  relative viability: 0.313
[2]; first compound 0.02 µM
  relative viability: 0.292
[2]; first compound 0.06325 µM
  relative viability: 0.122
[2]; first compound 0.2 µM
  relative viability: 0.114
[3]; first compound 0.002 µM
  relative viability: 0.352
[3]; first compound 0.006325 µM
  relative viability: 0.358
[3]; first compound 0.02 µM
  relative viability: 0.348
[3]; first compound 0.06325 µM
  relative viability: 0.357
[3]; first compound 0.2 µM
  relative viability: 0.292
[4]; first compound 0.006325 µM
  relative viability: 0.373
[4]; first compound 0.02 µM
  relative viability: 0.362
[4]; first compound 0.06325 µM
  relative viability: 0.578
[4]; first compound 0.2 µM
  relative viability: 0.262
[5]; first compound 0.002 µM
  relative viability: 0.398
[5]; first compound 0.006325 µM
  relative viability: 0.415
[5]; first compound 0.02 µM
  relative viability: 0.386
[5]; first compound 0.06325 µM
  relative viability: 0.306
[5]; first compound 0.2 µM
  relative viability: 0.297
[6]; first compound 0.002 µM
  relative viability: 0.253
[6]; first compound 0.006325 µM
  relative viability: 0.256
[6]; first compound 0.02 µM
  relative viability: 0.22
[6]; first compound 0.06325 µM
  relative viability: 0.197
[6]; first compound 0.2 µM
  relative viability: 0.22
[7]; first compound 0.002 µM
  relative viability: 0.959
[7]; first compound 0.006325 µM
  relative viability: 1.01
[7]; first compound 0.02 µM
  relative viability: 0.804
[7]; first compound 0.06325 µM
  relative viability: 0.876
[7]; first compound 0.2 µM
  relative viability: 0.657
[8]; first compound 0.002 µM
  relative viability: 0.567
[8]; first compound 0.006325 µM
  relative viability: 0.547
[8]; first compound 0.02 µM
  relative viability: 0.326
[8]; first compound 0.06325 µM
  relative viability: 0.0498
[8]; first compound 0.2 µM
  relative viability: 0.0697

## Cc1csc(=NC2CCCCC2)n1/N=C/c1ccc(O)c(O)c1O [MIM1] + COc1cccc2cc(-c3nc([C@H]4CC[C@H](C(=O)O)CC4)n4ncnc(N)c34)[nH]c12 [OSI-027] (partner 0.5 µM)
[1]; first compound 0.2 µM
  relative viability: 0.957
[1]; first compound 0.6325 µM
  relative viability: 0.9
[1]; first compound 2 µM
  relative viability: 0.804
[1]; first compound 6.325 µM
  relative viability: 0.639
[1]; first compound 20 µM
  relative viability: 0.459
[2]; first compound 0.2 µM
  relative viability: 0.394
[2]; first compound 0.6325 µM
  relative viability: 0.389
[2]; first compound 2 µM
  relative viability: 0.41
[2]; first compound 6.325 µM
  relative viability: 0.316
[2]; first compound 20 µM
  relative viability: 0.325
[3]; first compound 0.2 µM
  relative viability: 0.756
[3]; first compound 0.6325 µM
  relative viability: 0.684
[3]; first compound 2 µM
  relative viability: 0.636
[3]; first compound 6.325 µM
  relative viability: 0.534
[3]; first compound 20 µM
  relative viability: 0.31
[4]; first compound 0.2 µM
  relative viability: 0.246
[4]; first compound 0.6325 µM
  relative viability: 0.272
[4]; first compound 2 µM
  relative viability: 0.28
[4]; first compound 6.325 µM
  relative viability: 0.275
[4]; first compound 20 µM
  relative viability: 0.226
[5]; first compound 0.2 µM
  relative viability: 0.435
[5]; first compound 0.6325 µM
  relative viability: 0.416
[5]; first compound 2 µM
  relative viability: 0.412
[5]; first compound 6.325 µM
  relative viability: 0.36
[5]; first compound 20 µM
  relative viability: 0.383
[6]; first compound 0.2 µM
  relative viability: 0.441
[6]; first compound 0.6325 µM
  relative viability: 0.44
[6]; first compound 2 µM
  relative viability: 0.334
[6]; first compound 6.325 µM
  relative viability: 0.365
[6]; first compound 20 µM
  relative viability: 0.285
[7]; first compound 0.2 µM
  relative viability: 0.622
[7]; first compound 0.6325 µM
  relative viability: 0.757
[7]; first compound 2 µM
  relative viability: 0.72
[7]; first compound 6.325 µM
  relative viability: 0.628
[7]; first compound 20 µM
  relative viability: 0.659
[8]; first compound 0.2 µM
  relative viability: 0.785
[8]; first compound 0.6325 µM
  relative viability: 0.846
[8]; first compound 2 µM
  relative viability: 0.499
[8]; first compound 6.325 µM
  relative viability: 0.656
[8]; first compound 20 µM
  relative viability: 0.0965

## Cc1csc(=NC2CCCCC2)n1/N=C/c1ccc(O)c(O)c1O [MIM1] + Cc1cc(Nc2cc(N3CCN(C)CC3)nc(Sc3ccc(NC(=O)C4CC4)cc3)n2)n[nH]1 [Tozasertib] (partner 0.1 µM)
[1]; first compound 0.2 µM
  relative viability: 0.618
[1]; first compound 0.6325 µM
  relative viability: 0.625
[1]; first compound 2 µM
  relative viability: 0.575
[1]; first compound 6.325 µM
  relative viability: 0.47
[1]; first compound 20 µM
  relative viability: 0.446
[2]; first compound 0.2 µM
  relative viability: 0.329
[2]; first compound 0.6325 µM
  relative viability: 0.374
[2]; first compound 2 µM
  relative viability: 0.393
[2]; first compound 6.325 µM
  relative viability: 0.273
[2]; first compound 20 µM
  relative viability: 0.283
[3]; first compound 0.2 µM
  relative viability: 0.35
[3]; first compound 0.6325 µM
  relative viability: 0.367
[3]; first compound 2 µM
  relative viability: 0.361
[3]; first compound 6.325 µM
  relative viability: 0.363
[3]; first compound 20 µM
  relative viability: 0.285
[4]; first compound 0.2 µM
  relative viability: 0.371
[4]; first compound 0.6325 µM
  relative viability: 0.369
[4]; first compound 2 µM
  relative viability: 0.374
[4]; first compound 6.325 µM
  relative viability: 0.326
[4]; first compound 20 µM
  relative viability: 0.172
[5]; first compound 0.2 µM
  relative viability: 0.454
[5]; first compound 0.6325 µM
  relative viability: 0.402
[5]; first compound 2 µM
  relative viability: 0.43
[5]; first compound 6.325 µM
  relative viability: 0.339
[5]; first compound 20 µM
  relative viability: 0.352
[6]; first compound 0.2 µM
  relative viability: 0.226
[6]; first compound 0.6325 µM
  relative viability: 0.288
[6]; first compound 2 µM
  relative viability: 0.235
[6]; first compound 6.325 µM
  relative viability: 0.231
[6]; first compound 20 µM
  relative viability: 0.143
[7]; first compound 0.2 µM
  relative viability: 0.929
[7]; first compound 0.6325 µM
  relative viability: 0.931
[7]; first compound 2 µM
  relative viability: 0.817
[7]; first compound 6.325 µM
  relative viability: 0.872
[7]; first compound 20 µM
  relative viability: 0.782
[8]; first compound 0.2 µM
  relative viability: 0.526
[8]; first compound 0.6325 µM
  relative viability: 0.593
[8]; first compound 2 µM
  relative viability: 0.413
[8]; first compound 6.325 µM
  relative viability: 0.502
[8]; first compound 20 µM
  relative viability: 0.357
